Drawing on ChEMBL document CHEMBL4414582, “Lathyrane, Premyrsinane, and Related Diterpenes from Euphorbia boetica: Effect on in Vitro Neural Progenitor Cell Proliferation” (J Nat Prod, 2019), this text covers Activity for two compounds.

A short description of data set [1]: Effect on cell viability in mouse neurospheres derived neural precursor cells assessed as neurosphere number at 1 to 10 uM after 72 hrs in presence of bFGF by phase contrast microscopic based analysis.
For data set [2], the species on record is Mus musculus. Briefly: Activation of PKC in mouse neurospheres derived neural precursor cells assessed as cell proliferation by measuring neurosphere size at 1 uM after 72 hrs in presence of EGF and bFGF by phase contrast microscopic based analysis.
Data set [3] is filed under the species Mus musculus. The data set can be described thus: Activation of PKC in mouse neurospheres derived neural precursor cells assessed as cell proliferation by measuring neurosphere size at 1 to 10 uM after 72 hrs in presence of bFGF by phase contrast microscopic based analysis.
Data set [4] can be described thus: Effect on cell viability in mouse neurospheres derived neural precursor cells assessed as neurosphere number at 1 to 10 uM after 72 hrs in presence of EGF by phase contrast microscopic based analysis.
Data set [5] is filed under the species Mus musculus. Briefly: Activation of PKC in mouse neurospheres derived neural precursor cells assessed as increase in cell proliferation by measuring increase in neurosphere size after 72 hrs in presence of EGF and bFGF by phase contrast microscopic based analysis.
A short description of data set [6]: Effect on self-renewal capacity in mouse neurospheres derived neural precursor cells assessed as neurosphere number at 1 to 10 uM after 72 hrs in presence of EGF by phase contrast microscopic based analysis. The class given is ADME.
The nature of data set [7]: Effect on self renewal capacity in mouse neurospheres derived neural precursor cells assessed as neurosphere number at 1 to 10 uM after 72 hrs in presence of EGF and bFGF by phase contrast microscopic based analysis. The class given is ADME.
Data set [8] is described as follows: Effect on cell viability in mouse neurospheres derived neural precursor cells assessed as neurosphere number at 1 to 10 uM after 72 hrs in presence of bFGF and EGF by phase contrast microscopic based analysis.
Data set [9] is filed under the species Mus musculus. The data set can be described thus: Activation of PKC in mouse neurospheres derived neural precursor cells assessed as increase in cell proliferation by measuring increase in neurosphere size at 5 to 10 uM after 72 hrs in presence of EGF and bFGF by phase contrast microscopic based analysis.
A short description of data set [10]: Effect on self-renewal capacity in mouse neurospheres derived neural precursor cells assessed as neurosphere number at 1 to 10 uM after 72 hrs in presence of bFGF by phase contrast microscopic based analysis. It counts as ADME.
For data set [11], the species on record is Mus musculus. Briefly: Activation of PKC in mouse neurospheres derived neural precursor cells assessed as cell proliferation by measuring neurosphere size at 1 to 10 uM after 72 hrs in presence of EGF by phase contrast microscopic based analysis.
The species named for data set [12] is Mus musculus. The data set can be described thus: Activation of PKC in mouse neurospheres derived neural precursor cells assessed as increase in cell proliferation by measuring increase in neurosphere area at 5 uM after 72 hrs in presence of EGF and bFGF by phase contrast microscopic based analysis.

Active and inactive are the calls of the source. The rule behind the calls is not given here.

Turning to `CC(=O)O[C@@H]1[C@@H]2[C@@H](OC(C)=O)[C@]3(CC[C@H]4[C@@H](/C=C(\C)C(=O)[C@@]2(OC(C)=O)C[C@@H]1C)C4(C)C)CO3`, the Activity result in [1] is “Non-Toxic”; in [4], “Non-Toxic”; in data set [5], “Dose-dependent effect”; in [6], “Non-Toxic”; in data set [7], “Non-Toxic”; in data set [8], “Non-Toxic”. Further, the Activity entry in data set [10] is “Non-Toxic”. Besides, the result in data set [2], in [3] and in data set [11] was inactive. Further, the outcome in data set [9] was Active.
With `C=C1CC[C@H]2[C@@H](/C=C(\C)C(=O)[C@@]3(OC(C)=O)C[C@H](C)[C@H](OC(C)=O)[C@@H]3[C@H]1OC(C)=O)C2(C)C`, the Activity entry in data set [1], in data set [4], in [6], in data set [7], in data set [8] and in data set [10] was “Non-Toxic” throughout. In addition, the result in [12] was Active.
